# Data as given in patent US20240034736A1, “HSD17B13 INHIBITORS AND USES THEREOF” (FL2022-001, Inc., priority 2020, published 2024).
# pIC50: −log10 of the molar value.
# Molecular target: Recombinant human HSD17B13 enzyme (Homo sapiens (Human), UniProt Q7Z5P4)
# Assay: HSD17b13 NAD(P)H-Glo Biochemical Assay
# Conditions: 50 uM estradiol, 1 mM NAD+; read-out: HSD17β13 IC50
# Method: Recombinant human HSD17B13 enzyme. Substrate: estradiol (Sigma β-Estradiol E8875), 100 mM in DMSO. […] Assay buffer final concentration: 20 mM Tris pH7.4 with 0.002% Tween-20 and 0.02% BSA. […] Enzymatic activity detected by NAD(P)H-Glo™ Detection System (Promega G9062).
# Inhibitor compounds were serially diluted in DMSO and then further diluted in assay buffer to a 10× concentration consisting of 1% DMSO.
# HSD17b13 enzyme was diluted in 1× assay buffer to the desired enzyme concentration based on the specific activity of the enzyme lot. 20 uL of diluted enzyme was added to each well along with 2.5 uL of 10× inhibitor solution. Assay plate was incubated at RT for 20 minutes, and then 2.5 uL of a 10× substrate/cofactor mix was added to each well for a final concentration of 50 uM estradiol and 1 mMNAD+. Assay plate was incubated at 37° C. for 3 hours. NAD(P)H-Glo™ Detection System reagents were prepared according to manufacturer's specifications, and 25 uL was added to each well. After incubating for 1 hour at RT, luminescence was measured.
# Sequence of Recombinant human HSD17B13 enzyme (Q7Z5P4 20-300): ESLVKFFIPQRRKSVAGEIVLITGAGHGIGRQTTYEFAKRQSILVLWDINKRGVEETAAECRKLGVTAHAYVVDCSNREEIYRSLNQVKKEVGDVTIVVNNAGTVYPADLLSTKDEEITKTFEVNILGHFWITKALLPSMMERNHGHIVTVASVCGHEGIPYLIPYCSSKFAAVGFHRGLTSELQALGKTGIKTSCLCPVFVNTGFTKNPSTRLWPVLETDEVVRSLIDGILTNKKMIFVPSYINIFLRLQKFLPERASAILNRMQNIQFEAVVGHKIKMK
row,Structure (SMILES),pIC50
1,"Cc1cc(O)ccc1-c1ccc2c(cnn2-c2ccc(F)c(O)c2)c1 [Compound 5.19, 2-Fluoro-5-(5-(4-hydroxy-2-methylphenyl)-1H-indazol-1-yl)phenol]",6.00 to 7.00
2,"O=C(O)COc1ccc(-c2ccc3c(cnn3-c3ccc(F)c(O)c3)c2)cc1 [Compound 5.29, 2-(4-(1-(4-Fluoro-3-hydroxyphenyl)-1H-indazol-5-yl)phenoxy)acetic acid]",4.52 to 6.00
3,"COc1ccc(-c2ccc3c(cnn3-c3ccc(F)c(O)c3)c2)cc1 [Compound 5.22, 2-Fluoro-5-(5-(4-methoxyphenyl)-1H-indazol-1-yl)phenol]",6.00 to 7.00
4,"OCc1ccc(-c2ccc3c(cnn3-c3ccc(F)c(O)c3)c2)c(Cl)c1 [Compound 5.12, 5-(5-(2-Chloro-4-(hydroxymethyl)phenyl)-1H-indazol-1-yl)-2-fluorophenol]",6.00 to 7.00
5,"Oc1cc(-n2cc3cc(-c4ccc(O)c(Cl)c4)ccc3n2)ccc1F [Compound 4.06, 2-Chloro-4-(2-(4-fluoro-3-hydroxyphenyl)-2H-indazol-5-yl)phenol]",6.00 to 7.00
6,"Oc1cc(-n2ncc3cc(Nc4ccc(O)c(Cl)c4)ccc32)ccc1F [Compound 23, 2-Chloro-4-((1-(4-fluoro-3-hydroxyphenyl)-1H-indazol-5-yl)amino)phenol]",6.00 to 7.00
7,"Oc1cc(-n2ncc3cc(-c4ccc(C(F)F)cc4)ccc32)ccc1F [Compound 5.15, 5-(5-(4-(Difluoromethyl)phenyl)-1H-indazol-1-yl)-2-fluorophenol]",6.00 to 7.00
8,"Oc1cc(-n2ncc3cc(-c4ccc(O)c(Cl)c4)ccc32)ccc1F [Compound 5, 2-Chloro-4-(1-(4-fluoro-3-hydroxyphenyl)-1H-indazol-5-yl)phenol]",6.00 to 7.00
9,"CS(=O)(=O)Nc1ccc(-c2ccc3c(cnn3-c3ccc(F)c(O)c3)c2)cn1 [Compound 11.02, N-(5-(1-(4-Fluoro-3-hydroxyphenyl)-1H-indazol-5-yl)pyridine-2-yl)methanesulfonamide]",4.52 to 6.00
10,"O=C(O)c1ccc(-c2ccc3c(cnn3-c3ccc(F)c(O)c3)c2)c(Cl)c1 [Compound 12, 3-Chloro-4-(1-(4-Fluoro-3-hydroxyphenyl)-1H-indazol-5-yl)benzoic acid]",4.52 to 6.00
11,"Oc1cc(-n2ncc3cc(-c4ccccc4Cl)ccc32)ccc1F [Compound 4.11, 5-(5-(2-Chlorophenyl)-1H-indazol-1-yl)-2-fluorophenol]",6.00 to 7.00
12,"CS(=O)(=O)Nc1ccc(-c2ccc3c(cnn3-c3ccc(F)c(O)c3)c2)c(Cl)c1 [Compound 10, N-(3-Chloro-4-(1-(4-fluoro-3-hydroxyphenyl)-1H-indazol-5-yl)phenyl)methanesulfonamide]",6.00 to 7.00

# Second part, the compound after the results:
row,pIC50,Structure (SMILES)
1,4.52 to 6.00,"Cc1nn(-c2cc(C(F)(F)F)c(F)c(O)c2F)c2cnc(N3CCNCC3)nc12 [Compound 19.118, 2,6-Difluoro-3-(3-methyl-5-(piperazin-1-yl)-1H-pyrazolo[4,3-d]pyrimidin-1-yl)-5-(trifluoromethyl)phenol]"
2,6.00 to 7.00,"Cc1nn(-c2cc(C(F)(F)F)c(F)c(O)c2F)c2cnc(N3CCO[C@@H](c4ccccc4)C3)cc12 [Compound 19.109, (S)-2,6-Difluoro-3-(3-methyl-5-(2-phenylmorpholino)-1H-pyrazolo[3,4-c]pyridin-1-yl)-5-(trifluoromethyl)phenol]"
3,> 7.00,"COC1CCN(c2ncc3c(n2)c(C)nn3-c2cc(C(F)(F)F)c(F)c(O)c2F)CC1 [Compound 19.77, 2,6-Difluoro-3-(5-(4-methoxypiperidin-1-yl)-3-methyl-1H-pyrazolo[4,3-d]pyrimidin-1-yl)-5-(trifluoromethyl)phenol]"
4,6.00 to 7.00,"Cc1nn(-c2cc(C(F)(F)F)c(F)c(O)c2F)c2cnc(N(C)C3CCOCC3)c(F)c12 [Compound 19.102, 2,6-Difluoro-3-(4-fluoro-3-methyl-5-(methyl(tetrahydro-2H-pyran-4-yl)amino)-1H-pyrazolo[3,4-c]pyridin-1-yl)-5-(trifluoromethyl)phenol]"
5,4.52 to 6.00,"Cc1c(N2CCN(S(C)(=O)=O)CC2)ccc2c1cnn2-c1cc(O)c(F)c(F)c1 [Compound 21.14, 2,3-Difluoro-5-(4-methyl-5-(4-(methylsulfonyl)piperazin-1-yl)-1H-indazol-1-yl)phenol]"
6,6.00 to 7.00,"CN(c1ccc2c(c1)c(C(N)=O)nn2-c1cc(C(F)(F)F)c(F)c(O)c1F)C1CCOCC1 [Compound 19.111, 1-(2,4-Difluoro-3-hydroxy-5-(trifluoromethyl)phenyl)-5-(methyl(tetrahydro-2H-pyran-4-yl)amino)-1H-indazole-3-carboxamide]"
7,6.00 to 7.00,"COCC1(c2ccc3c(cnn3-c3cc(O)c(F)c(F)c3)c2)CCN(S(C)(=O)=O)CC1 [Compound 28.02, 2,3-Difluoro-5-(5-(4-(meth-oxymethyl)-1-(methylsul-fonyl)piperidin-4-yl)-1H-indazol-1-yl)phenol]"
8,> 7.00,"Cc1nn(-c2cc(C(F)(F)F)c(F)c(O)c2F)c2cnc(N3CCN(S(C)(=O)=O)CC34CC4)cc12 [Compound 19.53, 2,6-Difluoro-3-(3-methyl-5-(7-(methylsulfonyl)-4,7-diazaspiro[2.5]octan-4-yl)-1H-pyrazolo[3,4-c]pyridine-1-yl)-5-(trifluoromethyl)phenol]"
9,6.00 to 7.00,"Oc1c(F)c(-n2ncc3nc(N4CCOCC45CC5)ncc32)cc(C(F)(F)F)c1F [Compound 19.80, 3-(5-(7-Oxa-4-azaspiro[2.5]octan-4-yl)-1H-pyrazolo[4,3-d]pyrimidin-1-yl)-2,6-difluoro-5-(trifluoromethyl)phenol]"
10,4.52 to 6.00,"CS(=O)(=O)N1CCN(c2cc3cnn(-c4cc(O)cc(C(F)(F)F)c4)c3cn2)CC1 [Compound 19.16, 3-(5-(4-(Methylsulfonyl)piperazin-1-yl)-1H-pyrazolo[3,4-c]pyridine-1-yl)-5-(trifluoromethyl)phenol]"
11,6.00 to 7.00,"Cc1nn(-c2cc(C(F)(F)F)c(F)c(O)c2F)c2cnc(N3CCN(S(C)(=O)=O)CC3)cc12 [Compound 19.45, 2,6-Difluoro-3-(3-methyl-5-(4-(methylsulfonyl)piperazin-1-yl)-1H-pyrazolo[3,4-c]pyridine-1-yl)-5-(trifluoromethyl)phenol]"
12,6.00 to 7.00,"CN(c1ccc2c(c1)c(C#N)nn2-c1cc(C(F)(F)F)c(F)c(O)c1F)C1CCOCC1 [Compound 19.90, 1-(2,4-Difluoro-3-hydroxy-5-(trifluoromethyl)phenyl)-5-(methyl(tetrahydro-2H-pyran-4-yl)amino)-1H-indazole-3-carbonitrile]"
13,4.52 to 6.00,"COC1CCN(c2ccc3c(cnn3-c3ccc(F)c(O)c3)c2)CC1 [Compound 21.02, 2-Fluoro-5-(5-(4-methoxy-piperidin-1-yl)-1H-indazol-1-yl)phenol]"
14,6.00 to 7.00,"CC1CN(S(C)(=O)=O)CCN1c1cc2cn(-c3cc(O)c(F)c(C(F)(F)F)c3)nc2cn1 (stereo not shown) [Compound 19.34, 2-Fluoro-5-(5-(2-methyl-4-(methylsulfonyl)piperazin-1-yl)-2H-pyrazolo[3,4-c]pyridine-2-yl)-3-(trifluoromethyl)phenol]"
15,4.52 to 6.00,"CS(=O)(=O)N1CCC(c2cc3cnn(-c4cc(O)c(F)c(F)c4)c3cc2Cl)CC1 [Compound 27.01, 5-(6-Chloro-5-(1-(methyl-sulfonyl)piperidin-4-yl)-1H-indazol-1-yl)-2,3-difluoro-phenol]"
16,6.00 to 7.00,"CS(=O)(=O)N1CCN(c2cc3cnn(-c4cc(O)c(F)c(C(F)(F)F)c4)c3cn2)CC1 [Compound 21.41, 2-Fluoro-5-(5-(4-(methyl-sulfonyl)piperazin-1-yl)-1H-pyrazolo[3,4-c]pyridine-1-yl)-3-(trifluoromethyl)phenol]"
17,6.00 to 7.00,"CN(c1ccc2c(c1)c(F)nn2-c1cc(C(F)(F)F)c(F)c(O)c1F)C1CCOCC1 [Compound 21.58, 2,6-Difluoro-3-(3-fluoro-5-(methyl(tetrahydro-2H-pyran-4-yl)amino)-1H-indazol-1-yl)-5-(trifluoromethyl)phenol]"
18,6.00 to 7.00,"Oc1cc(-n2ncc3cc(N4CCOCC4)ncc32)cc(C(F)(F)F)c1F [Compound 21.57, 2-Fluoro-5-(5-morpholino-1H-pyrazolo[3,4-c]pyridin-1-yl)-3-(trifluoromethyl)phenol]"
19,6.00 to 7.00,"CC1(C)CN(S(C)(=O)=O)CCN1c1cc2cnn(-c3cc(O)c(F)c(C(F)(F)F)c3)c2cn1 [Compound 19.04, 5-(5-(2,2-Dimethyl-4-(methylsulfonyl)piperazin-1-yl)-1H-pyrazolo[3,4-c]pyridine-1-yl)-2-fluoro-3-(trifluoromethyl)phenol]"
20,4.52 to 6.00,"Cc1cc2c(cnn2-c2cc(O)c(F)c(F)c2)cc1N1CCN(S(C)(=O)=O)CC1 [Compound 21.11, 2,3-Difluoro-5-(6-methyl-5-(4-(methylsulfonyl)piperazin-1-yl)-1H-indazol-1-yl)phenol]"

# Same assay, conditions: read-out: HSD17β13 inhibition at 10 uM
row,inhibition at 10 µM [%],Structure (SMILES)
1,< 20,"Cc1nn(-c2cc(O)c(F)c(C(=O)O)c2)c2cnc(N3CCOCC34CC4)cc12 [Compound 19.121, 2-Fluoro-3-hydroxy-5-(3-methyl-5-(7-oxa-4-azaspiro[2.5]octan-4-yl)-1H-pyrazolo[3,4-c]pyridin-1-yl)benzoic Acid]"

# Same assay, conditions: read-out: HSD17β13 inhibition at 30 uM
row,inhibition at 30 µM [%],Structure (SMILES)
1,40,"CS(=O)(=O)N1CCN(c2cc3cnn(-c4ccc(C#N)c(O)c4)c3cn2)CC1 [Compound 19.36, 2-Hydroxy-4-(5-(4-(methylsulfonyl)piperazin-1-yl)-1H-pyrazolo[3,4-c]pyridine-1-yl)benzonitrile]"
